Source: US8921405B2, “Compounds” (Orexo AB, priority 2009, dated 2014)

biological target: T1, recombinant human mPGES-1 (Homo sapiens, UniProt O14684); experiment: mPGES-1 HTRF assay (inhibition of PGE2 formation from PGH2); type: biochemical; conditions: not given
T1 construct: made in house; host or cells: Rosetta E. coli (membrane/microsome fraction)
T1 sequence (O14684 1-152): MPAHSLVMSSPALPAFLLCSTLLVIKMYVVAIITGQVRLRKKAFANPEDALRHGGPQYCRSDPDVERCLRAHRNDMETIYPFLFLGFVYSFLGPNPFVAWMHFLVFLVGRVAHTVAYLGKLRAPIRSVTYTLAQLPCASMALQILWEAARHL
Description: The basis of the assay used is to measure the inhibition of microsomal prostaglandin E2 synthase-1 (mPGES-1) dependent prostaglandin (PG) E2 formation from PGH2 by different compounds. Thus, the formation of PGE2 is used as signal and a lowering of this signal can be interpreted as inhibition of mPGES-1. […] Microsomes from Rosetta E. coli bacteria expressing recombinant human mPGES-1 can be derived as described below: Inoculate 5 ml LB with Amp and Chloro with bacteria from freeze culture. Incubate over night at 37° C. with 200 rpm. Thereafter, inoculate 500-800 ml LB containing Amp and Chloro with the 5 ml on culture and grow to OD640 of 0.6-0.8. Chill the culture to +4° C. before induction. Induce the culture with IPTG at a final concentration of 400 μM. Express the protein at room temp 18-23° C. with 200 rpm shaking over night. The following steps can be performed on the following day: • 1. Spin down the cells in 250 ml centrifuge flasks for 15 min at 7000 rpm • 2. Dissolve the pellet from 250 ml culture in 12.5 ml homogenization buffer • 3. Disintegrate the cells by sonication, 4×10 seconds at 35% amplitude • 4. Add 2.5 ml MgCl2 (100 mM) and DNase 12.5 μl (0.8 mg/ml) and incubate on ice for 30 min • 5. Spin down the bacteria debris and save the supernatant, 7000 rpm for 15 min • 6. Isolate the protein containing membranes in the supernatant by ultracentrifugation 45000×g for 1 hour. • 7. Discard the supernatant and dissolve the pellet in 20 mM KPi buffer and aliquot the enzyme and store aliquots at −80° C. Before each experiment is performed an aliquot of the enzyme is thawed and it can then be dissolved in 0.1 M KPi pH 7.4 buffer containing 2.5 mM GSH. 50 μl of this enzyme solution is subsequently dispensed in a 384-well plate at room temperature. 0.5 μl of the inhibitor dissolved in DMSO is thereafter added to each well and incubated for 25 minutes at room temperature. Subsequently, 2 μl of PGH2 dissolved in an appropriate solvent is added to each well and after one minute at room temperature, the acidified stop solution containing FeCl2 is added. 4 μl of the total volume is transferred to a separate plate and diluted 750-fold in two separate steps before quantification of PGE2. In order to quantitate the amount of PGE2 that has been formed, a homogenous time resolved fluorescent (HTRF) detection of PGE2 can be performed by the use of a commercially available kit from CisBio essentially according to the manufacturer's protocol. […] The sealing film is thereafter removed from the NC wells. • 5 μl Eu3+-cryptate labeled anti-PGE2 can now be added to rows 1 to 24 by using a Multidrop. • The plate can now be covered with sealing film. • The plate can now be centrifuge at 1200 rpm for 1 minute and place at 4° C. overnight. After the over night incubation the fluorescence is measured by the use of an appropriate microplate reader. […] The extent of the specific HTRF is measured as a ratio of the emission intensity at 665 nm vs. that at 620 nm. A standard curve using synthetic PGE2 is used to quantify the amount of PGE2 in unknown samples. The degree of inhibition can be calculated as percent inhibition by dividing the amount of PGE2 formed in unknown samples by the amount of PGE2 formed in control samples.

SMILES	inhibition at 10 µM
CC(=O)NC(C)c1ccc(Cl)c(Nc2nc3cc(C(=O)Nc4ccc(Br)cc4)ccc3n2C)c1 (stereo not drawn) [Example 1, 2-[5-(1-Acetamidoethyl)-2-chlorophenylamino]-N-(4-bromophenyl)-1-methylbenzimidazole-5-carboxamide]	100%

same assay, conditions: compound concentration of 10 μM, HTRF assay

SMILES	% inhibition
Cn1c(Nc2cc(CNC(=O)C3(C)CCCCC3)ccc2Cl)nc2cc(Cl)c(NC(=O)C3CCCC3)cc21 [Example 6, N-{4-chloro-3-[5-chloro-6-(cyclopentylamido)-1-methyl-2-benzimidazolylamino]benzyl}-1-methylcyclohexylamide]	100%

same assay, conditions: compound concentration of 10 μM, HTRF assay; read-out: % inhibition

SMILES	inhibition at 10 µM
Cn1c(Nc2cc(CNC(=O)C3(C)CCCCC3)ccc2Cl)nc2cc(C(=O)NC3CCCC3)c(Cl)cc21 [Example 3, 6-Chloro-2-{2-chloro-5-[(1-methylcyclohexylamido)methyl]phenylamino}-N-cyclopentyl-1-methylbenzimidazole-5-carboxamide]	100%
CC1(C(=O)NCc2ccc(Cl)c(Nc3nc4cc(C(=O)N5CCCC5)ccc4[nH]3)c2)CCCCC1 [Example 4, N-{4-Chloro-3-[5-(1-pyrrolidinylcarbonyl)-2-benzimidazolylamino]benzyl}-1-methylcyclohexylamide]	83%
Cn1c(Nc2cc(CNC(=O)C3(C)CCCCC3)ccc2Cl)nc2cc(Cl)c(NC(=O)OC(C)(C)C)cc21 [Example 5, tert-Butyl 5-chloro-2-{2-chloro-5-[(1-methylcyclohexylamido)methyl]phenylamino}-1-methyl-6-benzimidazolylcarbamate]	100%
Cn1c(Nc2cc(CNC(=O)C3(C)CCCCC3)ccc2Cl)nc2cc(S(=O)(=O)NC3CCCC3)ccc21 [Example 7, N-{4-Chloro-3-[5-(N-cyclopentylsulfamoyl)-1-methyl-2-benzimidazolylamino]benzyl}-1-methylcyclohexylamide]	98%
Cn1c(Nc2cc(CNC(=O)C3(C)CC3)ccc2Cl)nc2cc(C(=O)NCC3CCCCC3)ccc21 [Example 8, 2-{2-Chloro-5-[(1-methylcyclopropylamido)methyl]phenylamino}-N-cyclohexylmethyl-1-methylbenzimidazole-5-carboxamide]	98%
Cn1c(Nc2cc(CNS(=O)(=O)c3cccs3)ccc2Cl)nc2cc(C(=O)NCC3CCCCC3)ccc21 [Example 9, 2-{2-Chloro-5-[(2-thienylsulfonamido)methyl]phenylamino}-N-cyclohexylmethyl-1-methylbenzimidazole-5-carboxamide]	98%
Cn1c(Nc2cc(CNC(=O)C3(C)CC3)ccc2Cl)nc2cc(C(=O)Nc3ccc(Br)cc3)ccc21 [Example 10]	100%
Cn1c(Nc2cc(CNC(=O)C3(C(F)(F)F)CC3)ccc2Cl)nc2cc(C(=O)NCC3CC3)ccc21 [Example 11, 2-{2-chloro-5-[(1-trifluoromethylcyclopropylamido)methyl]phenylamino}-N-cyclopropylmethyl-1-methylbenzimidazole-5-carboxamide]	100%
Cn1c(Nc2cc(CNC(=O)C3(C)CCCCC3)ccc2Cl)nc2cc(C(=O)N3CCCC3)ccc21 [Example 12, N-{4-Chloro-3-[1-methyl-5-(1-pyrrolidinylcarbonyl)-2-benzimidazolylamino]benzyl}-1-methylcyclohexylamide]	100%
CC1(C(=O)NCc2ccc(Cl)c(Nc3nc4ccc(C(=O)NC5CCCC5)cc4[nH]3)c2)CCCCC1 [Example 13, 2-{2-Chloro-5-[(1-methylcyclohexylamido)methyl]phenylamino}-N-cyclopentylbenzimidazole-5-carboxamide]	100%
Cn1c(Nc2cc(CNC(=O)C3(C)CCCCC3)ccc2Cl)nc2cc(C(=O)NC3CCCC3)ccc21 [Example 14, 2-{2-Chloro-5-[(1-methylcyclohexylamido)methyl]phenylamino}-N-cyclopentyl-1-methylbenzimidazole-5-carboxamide]	100%
Cn1c(Nc2cc(CNC(=O)C3(C)CCCCC3)ccc2Cl)nc2cc(C(=O)NCCOC(C)(C)C)ccc21 [Example 15, N-(2-tert-Butoxyethyl)-2-{2-chloro-5-[(1-methylcyclohexylamido)methyl]phenylamino}-1-methylbenzimidazole-5-carboxamide]	99%
Cn1c(Nc2cc(CNC(=O)C3(C)CCCCC3)ccc2Cl)nc2cc(C(=O)NCC3CCCCC3)ccc21 [Example 16, 2-{2-Chloro-5-[(1-methylcyclohexylamido)methyl]phenylamino}-N-cyclohexylmethyl-1-methylbenzimidazole-5-carboxamide]	80%
Cn1c(Nc2cc(CNC(=O)C3(C)CCCCC3)ccc2Cl)nc2cc(C(=O)NCCN3CCCCC3)ccc21 [Example 17, 2-{2-Chloro-5-[(1-methylcyclohexylamido)methyl]phenylamino]-1-methyl-N-[2-(1-piperidinyl)ethyl]benzimidazole-5-carboxamide]	95%
Cn1c(Nc2cc(CNC(=O)C3(C)CCCCC3)ccc2Cl)nc2cc(C(=O)NCC3CCCO3)ccc21 (stereo not drawn) [Example 18, 2-{2-Chloro-5-[(1-methylcyclohexylamido)methyl]phenylamino]-1-methyl-N-[(2-tetrahydrofuryl)methyl]benzimidazole-5-carboxamide]	98%
CN1CCCCC1CNC(=O)c1ccc2c(c1)nc(Nc1cc(CNC(=O)C3(C)CCCCC3)ccc1Cl)n2C (stereo not drawn) [Example 19, 2-{2-Chloro-5-[(1-methylcyclohexylamido)methyl]phenylamino]-1-methyl-N-[(1-methyl-2-piperidinyl)methyl]benzimidazole-5-carboxamide]	98%
Cn1c(Nc2cc(CNC(=O)C3(C)CCCCC3)ccc2Cl)nc2cc(C(=O)NCc3ccccn3)ccc21 [Example 20, 2-{2-Chloro-5-[(1-methylcyclohexylamido)methyl]phenylamino}-1-methyl-N-(2-pyridinylmethyl)benzimidazole-5-carboxamide]	100%
Cn1c(Nc2cc(CNC(=O)C3(C)CCCCC3)ccc2Cl)nc2cc(C(=O)Nc3ccc(Br)cc3)ccc21 [Example 21, N-(4-Bromophenyl)-2-{2-chloro-5-[(1-methylcyclohexylamido)methyl]-phenylamino}-1-methylbenzimidazole-5-carboxamide]	100%
CN(C(=O)c1ccc2c(c1)nc(Nc1cc(CNC(=O)C3(C)CCCCC3)ccc1Cl)n2C)C1CCCC1 [Example 22, 2-{2-Chloro-5-[(1-methylcyclohexylamido)methyl]phenylamino}-N-cyclopentyl-N,1-dimethylbenzimidazole-5-carboxamide]	98%
CC1(C(=O)NCc2ccc(Cl)c(Nc3nc4cc(C(=O)NC5CCCC5)c(Cl)cc4n3C3CCCC3)c2)CCCCC1 [Example 23, 6-Chloro-2-{2-chloro-5-[(1-methylcyclohexylamido)methyl]phenylamino}-N,1-dicyclopentylbenzimidazole-5-carboxamide]	100%
CC1(C(=O)NCc2ccc(Cl)c(Nc3nc4cc(Cl)c(C(=O)NC5CCCC5)cc4[nH]3)c2)CCCCC1 [Example 24, 6-Chloro-2-{2-chloro-5-[(1-methylcyclohexylamido)methyl]phenylamino}-N-cyclopentylbenzimidazole-5-carboxamide]	97%
Cn1c(Nc2cc(CNC(=O)C3(C)CCCCC3)ccc2Cl)nc2cc(Cl)c(NC(=O)c3ccc(Br)cc3)cc21 [Example 25, 4-Bromo-N-(5-chloro-2-{2-chloro-5-[(1-methylcyclohexylamido)methyl]phenylamino}-1-methyl-6-benzimidazolyl)benzamide]	99%
